In EP0551675A1, “Oral hygiene compositions containing antiplaque agents” (UNILEVER N.V., priority 1991, dated 1993):
In brackets after ≈: the same amount, converted by molar mass.

Tests used:
Actinomyces naeslundii = experiment: Antimicrobial activity determination (MIC); type: cell-based; details: BHI broth, aerobic, 37 degrees C, read-out: Minimimum Inhibitory Concentrations
Protocol: (§1) The antimicrobial activity of the targeted agents was assessed by determining the minimum inhibitory concentration (MIC). Pure cultures of various strains of oral bacterial species as indicated in Table 3 were combined with serial dilutions of the targeted agents in beef heart infusion broth (BHI); starting bacterial concentrations were approximately 1.0 x 10E6 colony forming units (CFU) per ml. The mixtures were incubated aerobically at 37 degrees C and the optical density (540 nm, path length 1cm) of the cultures was measured at 0.0, 24.0 and 48.0 hr using Bausch and Lomb Spec 20 variable wavelength spectrophotometer.

Candida albicans = experiment: Antimicrobial activity determination (MIC); type: cell-based; details: BHI broth, aerobic, 37 degrees C, read-out: Minimimum Inhibitory Concentrations
Protocol: as §1

Neisseria subflava = experiment: Antimicrobial activity determination (MIC); type: cell-based; details: BHI broth, aerobic, 37 degrees C, read-out: Minimimum Inhibitory Concentrations
Protocol: as §1

Porphyromonas gingivalis = experiment: Antimicrobial activity determination (MIC); type: cell-based; details: BHI broth, aerobic, 37 degrees C, read-out: Minimimum Inhibitory Concentrations
Protocol: as §1

Prevotella intermedius = experiment: Antimicrobial activity determination (MIC); type: cell-based; details: Prevotella intermedius; BHI broth, aerobic, 37 degrees C; read-out: Minimimum Inhibitory Concentrations
Protocol: as §1

Streptococcus sanguis = experiment: Antimicrobial activity determination (MIC); type: cell-based; details: Streptococcus, Streptococcus sanguis; BHI broth, aerobic, 37 degrees C; read-out: Minimimum Inhibitory Concentrations
Protocol: as §1

Streptococcus sobrinus = experiment: Antimicrobial activity determination (MIC); type: cell-based; details: BHI broth, aerobic, 37 degrees C, read-out: Minimimum Inhibitory Concentrations
Protocol: as §1

Veillonella dispar = experiment: Antimicrobial activity determination (MIC); type: cell-based; details: BHI broth, aerobic, 37 degrees C, read-out: Minimimum Inhibitory Concentrations
Protocol: as §1

[1] = Krafft point of a 1% dispersion in water; type: physicochemical; details: 1% dispersion of the surfactant in water
Protocol: The temperature at and above which surfactants begin to form micelles instead of precipitates is referred to as Krafft point (Tk) and at this temperature the solubility of a surfactant becomes equal to its CMC.
Krafft point was measured by preparing a 1% dispersion of the surfactant in water. If the surfactant was soluble at room temperature, the solution was cooled to 0°C. […] If it precipitated out, the solution was slowly warmed with stirring in a water bath. The temperature at which the precipitate dissolved was determined to be the Krafft point.
If the Krafft point was above room temperature, the solution was first heated rapidly to dissolve all the surfactant. It was then cooled until precipitation occurred, and was then slowly warmed to determine the Krafft point described above.

[2] = Foam height, Ross-Miles method; type: physicochemical; details: 45°C, water with 120 ppm hardness
Protocol: Since most of the foaming data on surfactants is typically obtained by the Ross-Miles method (Ross, J. and Miles, G.D., am. Soc. for Testing Material Method D1173-53 Philadelphia, PA. (1953); Oil & Soap (1958) 62:1260) the foaming ability of these surfactants was also acquired using this method.
In the Ross-Miles method, 200 mL of a solution of surfactant contained in a pipette of specified dimensions with a 2.9-mm-i.d. orifice is allowed to fall 90 cm onto 50 mL of the same solution contained in a cylindrical vessel maintained at a given temperature (often 60°C) by means of a water jacket. The height of the foam produced in the cylindrical vessel is read immediately after all the solution has run out of the pipette (initial foam height) and then again after a given amount of time (generally, 5 min).
Using this method, the foam production (measured initially) and foam stability (the height after 10 minutes) are reported. […] The foam height is represented in millimeters (mm).

## CCCCCCCCCCCCNC(=O)[C@H](O)[C@@H](O)[C@H](O[C@@H]1O[C@H](CO)[C@H](O)[C@H](O)[C@H]1O)[C@H](O)CO [Dodecyl lactobionamide, N-dodecyl lactobionamide]
Actinomyces naeslundii
  MIC: 60 µg/mL (≈ 114 µM)
Candida albicans
  MIC: 125 µg/mL (≈ 238 µM)
Neisseria subflava
  MIC: 250 µg/mL (≈ 476 µM)
Porphyromonas gingivalis
  MIC: 30 µg/mL (≈ 57.1 µM)
Prevotella intermedius
  MIC: 250 µg/mL (≈ 476 µM)
Streptococcus sanguis
  MIC: 125 µg/mL (≈ 238 µM)
Streptococcus sobrinus
  MIC: 125 µg/mL (≈ 238 µM)
Veillonella dispar
  MIC: 60 µg/mL (≈ 114 µM)
[1]
  Krafft Point: 38 °C
[2]; foam production, measured initially
  Initial Height: 160 mm
[2]; foam stability, height after 10 minutes
  After 10 Minutes: 6 mm
